For nine molecules, GI50 and TGI results are on record in PubChem BioAssay (NCI).

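Exposure lasted 48 hours, with cells grown in 96-well plates and compounds tested at five concentrations. GI50: concentration for 50% inhibition of growth. TGI: total growth inhibition.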

Test systems include RPMI-8226 leukemia; M14 melanoma; BT-549 breast; CCRF-CEM leukemia; PC-3 prostate; A549 NSCLC; ACHN renal; HCC-2998 colon; K-562 leukemia; RXF 393 renal.
What all share (assay): growth of human tumour cells (NCI), 48 h

In the case of `COc1ccc(/C=C\c2cc(OC)c(OC)c(OC)c2)cc1OCC(=O)Nc1nc2ccc(OC(F)(F)F)cc2s1`, the GI50 with RPMI-8226 leukemia is 5.83 µM; in the assay with M14 melanoma it was 4.36 µM; in the assay on BT-549 breast, 10.5 µM; in the assay with CCRF-CEM leukemia it was 4.12 µM; with PC-3 prostate, 5.12 µM; in the assay with A549 NSCLC it was 6 µM. For the same molecule, the figures for the GI50 with ACHN renal, with HCC-2998 colon and in the assay on K-562 leukemia were 8.31 µM, 17.1 µM and 3.43 µM, respectively. In addition, the TGI in the assay on RPMI-8226 leukemia, with M14 melanoma, in the assay on BT-549 breast, in the assay with CCRF-CEM leukemia, in the assay on PC-3 prostate and in the assay with A549 NSCLC was over 100 µM throughout. Besides, the TGI in the assay with ACHN renal, in the assay on HCC-2998 colon and in the assay with K-562 leukemia was over 100 µM each time.
Consider `NC(N)=N/N=C/c1c(-c2ccc(Cl)c([N+](=O)[O-])c2)nc2ccccn12`, for which the GI50 is 0.119 µM in the assay with BT-549 breast; 1.37 µM in the assay on PC-3 prostate; 1.63 µM with A549 NSCLC; 11.3 µM in the assay with ACHN renal; 1.5 µM with HCC-2998 colon. Moreover, the TGI was determined as 1.18 µM in the assay on BT-549 breast; 2.65 µM in the assay on PC-3 prostate; 2.99 µM in the assay on A549 NSCLC; 34.9 µM in the assay with ACHN renal; 3.1 µM in the assay on HCC-2998 colon.
Consider `COc1cc2c3c(n(C)c(=O)c2cc1OC)-c1cc2c(cc1/C3=C/[C@H](N)CCCCN)OCO2`, for which the GI50 was 1.59 µM in the assay with RPMI-8226 leukemia; 1.59 µM in the assay with M14 melanoma; 0.0526 µM in the assay with CCRF-CEM leukemia; 3.45 µM in the assay with RXF 393 renal; 2 µM in the assay on PC-3 prostate; 0.622 µM in the assay on A549 NSCLC. Also, the results for the GI50 in the assay with ACHN renal and with K-562 leukemia were 0.637 µM and 4.68 µM, respectively. Further, the TGI with RPMI-8226 leukemia was over 61.5 µM; in the assay with M14 melanoma it was 4.55 µM; in the assay with BT-549 breast, 2.57 µM; with CCRF-CEM leukemia it was over 100 µM; in the assay with RXF 393 renal, 12.7 µM; in the assay on PC-3 prostate, 27.5 µM. Besides, the figures for the TGI in the assay with A549 NSCLC, in the assay with ACHN renal and in the assay with K-562 leukemia were 24.5 µM, 3.16 µM and over 100 µM, respectively.
Regarding `COc1cc2c3c(n(CCCNCCNCCCN)c(=O)c2cc1OC)-c1cc2c(cc1C3=O)OCO2`, the GI50 was 3 µM in the assay on M14 melanoma; 15.1 µM with BT-549 breast; 13 µM in the assay with RXF 393 renal; 13.2 µM in the assay with PC-3 prostate; 10.8 µM with A549 NSCLC; 0.18 µM with ACHN renal. Besides, in the assay with K-562 leukemia, the GI50 is 3.43 µM. For the same molecule, the TGI in the assay on M14 melanoma is 12.5 µM; in the assay with BT-549 breast, 35.2 µM; with RXF 393 renal, 93.1 µM; in the assay with PC-3 prostate, 56.3 µM; with A549 NSCLC it was over 100 µM; in the assay with ACHN renal, 2.6 µM. Besides, the TGI with K-562 leukemia was over 100 µM.
As to `CC(=O)OC12CC(C)C3(O)C4C=C(C)C(=O)[C@@]4(O)CC(CO)=C[C@H]3C1C2(C)C` (some centres not stated), the GI50 in the assay with RPMI-8226 leukemia is over 1000 µM; in the assay on M14 melanoma it was over 1000 µM; with BT-549 breast, over 1000 µM; in the assay with PC-3 prostate it was 0.228 µM; in the assay with ACHN renal, over 1000 µM; with HCC-2998 colon, 2.35 µM. Further, the TGI in the assay with RPMI-8226 leukemia, in the assay with M14 melanoma, in the assay with BT-549 breast, in the assay on CCRF-CEM leukemia, in the assay on PC-3 prostate and with ACHN renal was over 1000 µM in each case.
Take `CN(C)CCNC(=O)c1nc([N+](=O)[O-])cn1C`: the TGI in the assay on RPMI-8226 leukemia, in the assay with M14 melanoma, in the assay with BT-549 breast, with CCRF-CEM leukemia, in the assay on PC-3 prostate and in the assay on A549 NSCLC was over 100 µM throughout. Further, the TGI in the assay with ACHN renal, in the assay with HCC-2998 colon and in the assay on K-562 leukemia was over 100 µM throughout.
Consider `COc1ccc(-c2csc3c2-n2cccc2C3=O)cc1O`, for which the GI50 with RPMI-8226 leukemia is 0.0176 µM; in the assay with BT-549 breast, 0.0197 µM; in the assay on CCRF-CEM leukemia, 0.059 µM; in the assay with PC-3 prostate it was 0.265 µM; in the assay on A549 NSCLC it was 0.112 µM; in the assay on ACHN renal, under 0.0489 µM. Besides, the GI50 in the assay with HCC-2998 colon is 0.454 µM; in the assay with K-562 leukemia, under 0.01 µM. Also, the TGI in the assay with RPMI-8226 leukemia is 3.16 µM; with BT-549 breast it was over 100 µM; in the assay with CCRF-CEM leukemia, 0.4 µM; in the assay with PC-3 prostate, over 100 µM; with A549 NSCLC, over 91.5 µM; in the assay with ACHN renal it was over 100 µM. Besides, the TGI with HCC-2998 colon is 8.71 µM; with K-562 leukemia, over 100 µM.
`C=C1C(=O)O[C@H]2C[C@@H]1CCC1(C)OC1CC/C(C)=C/CC[C@H]2C` (some centres not stated): the GI50 in the assay on RPMI-8226 leukemia was 20.1 µM; in the assay with M14 melanoma, 18 µM; with BT-549 breast, 23.5 µM; in the assay on RXF 393 renal, 21.4 µM; in the assay with PC-3 prostate, 19.4 µM; in the assay on A549 NSCLC it was 19.7 µM. Moreover, the GI50 was over 100 µM in the assay on ACHN renal, 18.9 µM in the assay with HCC-2998 colon and 21.6 µM in the assay with K-562 leukemia. Moreover, the TGI in the assay with RPMI-8226 leukemia turned out to be 41.9 µM; in the assay with M14 melanoma it was 31.9 µM; in the assay with BT-549 breast, 45.3 µM; with RXF 393 renal, 43.1 µM; in the assay on PC-3 prostate it was 33.5 µM; in the assay on A549 NSCLC, 39 µM. The TGI was over 100 µM in the assay on ACHN renal, 33.1 µM in the assay with HCC-2998 colon and 41.2 µM in the assay on K-562 leukemia.
For the molecule `N=C(N)c1ccc(-c2ccc(-c3ccc(F)cc3)o2)o1`, the GI50 with RPMI-8226 leukemia was 2.48 µM; in the assay with M14 melanoma it was 1.23 µM; with BT-549 breast, 2.27 µM; in the assay on CCRF-CEM leukemia, 1.84 µM; in the assay on RXF 393 renal, 1.6 µM; in the assay on PC-3 prostate it was 1.22 µM. Moreover, the GI50 with A549 NSCLC is 1.65 µM; in the assay on ACHN renal, 1.6 µM; in the assay on HCC-2998 colon, 1.37 µM. Besides, the TGI amounted to 6.1 µM in the assay with RPMI-8226 leukemia; 2.79 µM with M14 melanoma; 7.19 µM with BT-549 breast; 5.57 µM in the assay on CCRF-CEM leukemia; 3.4 µM in the assay on RXF 393 renal; 2.57 µM in the assay with PC-3 prostate. Moreover, the TGI in the assay on A549 NSCLC worked out at 3.3 µM; with ACHN renal it was 2.97 µM; in the assay with HCC-2998 colon, 2.81 µM.
